Results: US10759799B2, “Indazole containing macrocycles and therapeutic uses thereof” (Samumed, LLC, priority 2018, dated 2020)
pEC50: −log10 of the molar value.

How the values were obtained:
[1] = system: primary human fibroblasts derived from IPF patients (LL29 cells); assay: Inhibition of TGF-β1 induced fibrosis (αSMA staining) in LL29 fibroblasts; type: cell-based; conditions: Fibroblast, 96 h, LL29 cells, TGF-β1 20 ng/mL, 4 days, % αSMA positive cells
Experimental: Representative compounds were screened using primary human fibroblasts (derived from IPF patients) treated with TGF-β1 to determine their ability to inhibit the fibrotic process.
LL29 cells were plated at 1,500 cells/well in 70 μL/well F12 medium supplemented with 1% Fetal Bovine Serum. […] Wells treated with TGF-β1 and containing DMSO were used as positive control, and cells with only DMSO were negative control. […] Following incubation for 4 days, SYTOX green nucleic acid stain (Life Technologies [Thermo Fisher Scientific]) was added to the wells at a final concentration of 1 μM and incubated at room temperature for 30 min.

[2] = system: SW480 colon carcinoma cells; assay: Cell viability assay (CellTiter-Glo) in SW480 cells; type: cell-based; conditions: Homo sapiens
Experimental: Representative compounds were screened using the assay procedure to assess the effect on cell viability as described below.
SW480 colon carcinoma cells were transduced with a lentiviral vector expressing luciferase with a human Sp5 promoter consisting of a sequence of eight TCF/LEF binding sites. SW480 cells stably expressing the Sp5-Luc reporter gene and a hygromycin resistance gene were selected by treatment with 150 μg/mL of hygromycin for 7 days. These stably transduced SW480 cells were expanded in cell culture and used for all further screening activities.
For the Cell Viability Assays, the cells were plated at 2,000 cells/well in 384-well plates with a DMEM medium containing 1% fetal bovine serum, and 1% Penicillin-Streptomycin and incubated for […] at 37° C. and 5% CO2. Eight replicates of DMSO-treated cells served as controls and cells treated with compound were performed in duplicate.
After incubation, 10 μL of CellTiter-Glo (Promega) was added to each well allowed to incubate for approximately 12 minutes. This reagent “results in cell lysis and generation of a luminescent signal proportional to the amount of ATP present. The amount of ATP is directly proportional to the number of cells present in culture, in agreement with previous reports. The CellTiter-Glo Assay generates a “glow-type” luminescent signal, produced by the luciferase reaction (Promega.com)”.

[3] = from NCc1cncc(-c2ccc3[nH]nc(C(=O)Nc4cncc(-c5cccc(CCC(=O)O)c5)c4)c3c2)c1; amide bond; 20-membered ring; HATU/DIEA/DMAP; DMF; 20.0 mM; 37.0 °C
recombinant GSK3β kinase = recombinant GSK3β kinase (Homo sapiens (Human), UniProt P49841); assay: GSK3β kinase assay (Ser/Thr 09 peptide Z-lyte, FRET); type: biochemical; conditions: 46 μM ATP, one hour at room temperature, read-out: EC50 (μM) (IC50 per method)
recombinant GSK3β kinase, sequence (P49841 whole entry): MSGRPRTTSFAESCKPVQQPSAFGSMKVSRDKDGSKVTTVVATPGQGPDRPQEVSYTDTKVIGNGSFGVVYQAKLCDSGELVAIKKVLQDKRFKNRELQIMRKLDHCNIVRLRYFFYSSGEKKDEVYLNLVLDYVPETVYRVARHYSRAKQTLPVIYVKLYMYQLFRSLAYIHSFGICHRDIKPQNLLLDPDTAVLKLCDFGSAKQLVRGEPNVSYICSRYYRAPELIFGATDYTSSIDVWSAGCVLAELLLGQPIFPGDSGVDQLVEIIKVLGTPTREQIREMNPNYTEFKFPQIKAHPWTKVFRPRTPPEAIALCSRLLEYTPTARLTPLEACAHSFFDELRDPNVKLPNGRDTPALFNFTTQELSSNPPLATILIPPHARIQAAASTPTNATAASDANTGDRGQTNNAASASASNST
Text: Representative compounds were screened using the assay procedure for GSK3β kinase activity as described below.
The GSK3β kinase assay is run using the Ser/Thr 09 peptide Z-lyte assay kit according to manufacturer's instructions (Life Technologies—a Division of Thermo-Fisher). This is a non-radioactive assay using fluorescence resonance energy transfer (FRET) between coumarin and fluorescein to detect kinase activity which is represented as ratio of coumarin emission/fluorescein emission.
Briefly, recombinant GSK3β kinase, ATP and Ser/Thr peptide 09 are prepared in 1× Kinase buffer to final concentrations of 0.04 μg/mL, 46 μM, and 4 μM respectively. The mixture is allowed to incubate with the representative compounds for one hour at room temperature. All reactions were performed in duplicate. Unphosphorylated (“0% Control”) and phosphorylated (“100% control”) forms of […] serve as control reactions.
After incubation, diluted Development Buffer is added to the reaction and allowed to further incubate for one hour at room temperature. The plate is read at Ex 400 Em 455 to detect the coumarin signal and Ex 400 Em 520 to measure the signal (EnVision Multilabel Plate Reader, PerkinElmer).
The Emission ratio (Em) is calculated as a ratio of the coumarin (C) emission signal (at 445 nm)/Fluorescein (F) emission signal (at 520 nm). The percent phosphorylation is then calculated using the following formula: [1−((Em ratio×F100%)−C100%)/((C0%−C100%)+(Em ratio×(F100%−F0%)))].
Dose-response curves are generated and inhibitory concentration (IC50) values are calculated using non-linear regression curve fit in the Dotmatics' Studies Software (Bishops Stortford, UK).

pEC50 ([2]; 96 h, SW480 cell viability, four days, CellTiter-Glo): < 5.00
IC50 (recombinant GSK3β kinase): 0.01 µM
SMILES: O=C1CCc2cccc(c2)-c2cncc(c2)NC(=O)c2n[nH]c3ccc(cc23)-c2cncc(c2)CN1 [Compound 97, 2^1H-4,10-diaza-2(5,3)-indazola-1,5(3,5)-dipyridina-6(1,3)-benzenacycloundecaphane-3,9-dione]
pEC50 [1]: 6.39
inhibition at 10 µM ([2]; SW480, read-out: percent inhibition at 10 μM): 25%
ring closure, isolated yield [3]: 20.8%
